Reference: ChEMBL document CHEMBL4800722, “Data for DCP probe BI 605906” (2021)

What was measured:
[1] = molecular target: Muscarinic acetylcholine receptor M2 (Homo sapiens) (UniProt P08172); conditions: Compound concentration 10.0 uM
[2] = molecular target: Serine/threonine-protein kinase Nek6 (Homo sapiens) (UniProt Q9HC98); test: NEK6 DUNDEE kinase screen (BI); conditions: Compound concentration 10.0 uM
[3] = molecular target: Mitogen-activated protein kinase 14 (Homo sapiens) (UniProt Q16539); conditions: Compound concentration 1.0 uM
[4] = molecular target: Cyclin-dependent kinase 4/cyclin D1 (Homo sapiens) (UniProt P11802+P24385); conditions: Compound concentration 1.0 uM
[5] = molecular target: Serine/threonine-protein kinase PAK 2 (Homo sapiens) (UniProt Q13177); conditions: Compound concentration 1.0 uM
[6] = molecular target: 5-hydroxytryptamine receptor 7 (Homo sapiens) (UniProt P34969); conditions: Compound concentration 10.0 uM
[7] = molecular target: MAP kinase-activated protein kinase 2 (Homo sapiens) (UniProt P49137)
Chain of MAP kinase-activated protein kinase 2 (Homo sapiens) (P49137 whole entry, looked up): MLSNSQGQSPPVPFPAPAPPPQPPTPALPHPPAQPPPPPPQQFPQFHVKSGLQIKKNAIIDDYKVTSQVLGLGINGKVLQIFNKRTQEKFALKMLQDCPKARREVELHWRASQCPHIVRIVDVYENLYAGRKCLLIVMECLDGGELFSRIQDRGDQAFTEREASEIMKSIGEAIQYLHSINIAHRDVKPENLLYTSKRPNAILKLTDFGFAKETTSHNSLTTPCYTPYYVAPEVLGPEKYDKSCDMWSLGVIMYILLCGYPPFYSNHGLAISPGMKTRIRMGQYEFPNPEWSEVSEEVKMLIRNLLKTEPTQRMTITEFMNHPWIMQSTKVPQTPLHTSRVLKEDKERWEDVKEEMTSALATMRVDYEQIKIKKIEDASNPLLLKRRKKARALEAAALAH

[8] = molecular target: Mitogen-activated protein kinase 14 (Homo sapiens) (UniProt Q16539); test: SAPK2AP38 DUNDEE kinase screen (BI); conditions: Compound concentration 10.0 uM
[9] = molecular target: Phosphatidylinositol 4-phosphate 5-kinase type-1 beta (Homo sapiens) (UniProt O14986); conditions: Compound concentration 1.0 uM
Homo sapiens = species on record: Homo sapiens; test: PKBDPH (PKB delta PH) DUNDEE kinase screen (BI); conditions: Compound concentration 10.0 uM
[10] = molecular target: 5-hydroxytryptamine receptor 1A (Homo sapiens) (UniProt P08908); conditions: Compound concentration 10.0 uM
[11] = molecular target: Alpha-1D adrenergic receptor (Homo sapiens) (UniProt P25100); conditions: Compound concentration 10.0 uM
[12] = molecular target: Ephrin type-A receptor 7 (Homo sapiens) (UniProt Q15375); conditions: Compound concentration 1.0 uM
[13] = molecular target: Cyclin-dependent kinase 16 (Homo sapiens) (UniProt Q00536); conditions: Compound concentration 1.0 uM
[14] = molecular target: Inhibitor of nuclear factor kappa-B kinase subunit beta (Homo sapiens) (UniProt O14920)
Chain of Inhibitor of nuclear factor kappa-B kinase subunit beta (Homo sapiens) (O14920 whole entry): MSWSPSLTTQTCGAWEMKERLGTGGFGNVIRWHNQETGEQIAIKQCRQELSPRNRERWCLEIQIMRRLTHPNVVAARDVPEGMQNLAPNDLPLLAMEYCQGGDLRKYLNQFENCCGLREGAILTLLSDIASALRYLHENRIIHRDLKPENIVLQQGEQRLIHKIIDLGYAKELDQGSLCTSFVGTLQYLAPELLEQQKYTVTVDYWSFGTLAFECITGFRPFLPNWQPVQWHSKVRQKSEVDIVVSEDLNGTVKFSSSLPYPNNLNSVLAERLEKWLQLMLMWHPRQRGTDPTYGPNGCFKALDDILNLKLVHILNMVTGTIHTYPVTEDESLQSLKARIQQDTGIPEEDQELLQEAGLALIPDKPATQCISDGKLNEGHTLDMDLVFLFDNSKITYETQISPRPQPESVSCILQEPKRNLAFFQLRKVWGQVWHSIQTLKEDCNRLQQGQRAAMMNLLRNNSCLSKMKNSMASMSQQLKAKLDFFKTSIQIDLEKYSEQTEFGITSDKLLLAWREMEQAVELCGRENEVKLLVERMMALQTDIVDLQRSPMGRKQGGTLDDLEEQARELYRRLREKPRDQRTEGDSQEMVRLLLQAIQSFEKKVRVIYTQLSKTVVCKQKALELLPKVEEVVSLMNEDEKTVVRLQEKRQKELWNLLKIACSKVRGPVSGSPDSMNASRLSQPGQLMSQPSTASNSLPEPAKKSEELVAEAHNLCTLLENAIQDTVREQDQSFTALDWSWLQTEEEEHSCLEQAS

[15] = molecular target: Mitogen-activated protein kinase kinase kinase kinase 3 (Homo sapiens) (UniProt Q8IVH8); conditions: Compound concentration 1.0 uM
[16] = molecular target: Serotonin 2 (5-HT2) receptor (Rattus norvegicus) (UniProt P30994+P08909+P14842)
Chain of Serotonin 2 (5-HT2) receptor (Rattus norvegicus) (P08909 whole entry, looked up): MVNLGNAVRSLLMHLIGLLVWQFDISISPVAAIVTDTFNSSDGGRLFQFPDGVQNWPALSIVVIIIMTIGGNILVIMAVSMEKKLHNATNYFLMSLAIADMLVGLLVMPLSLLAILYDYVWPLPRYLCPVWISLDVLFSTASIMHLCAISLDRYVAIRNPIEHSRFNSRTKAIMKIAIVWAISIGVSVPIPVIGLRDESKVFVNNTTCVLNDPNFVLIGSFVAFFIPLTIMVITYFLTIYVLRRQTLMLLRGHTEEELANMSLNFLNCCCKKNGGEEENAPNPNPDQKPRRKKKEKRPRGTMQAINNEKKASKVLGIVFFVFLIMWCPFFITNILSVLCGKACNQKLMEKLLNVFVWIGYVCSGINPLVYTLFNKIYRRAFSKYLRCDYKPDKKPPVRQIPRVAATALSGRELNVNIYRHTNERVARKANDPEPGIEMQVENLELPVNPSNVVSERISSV
Chain of Serotonin 2 (5-HT2) receptor (Rattus norvegicus) (P14842 whole entry, looked up): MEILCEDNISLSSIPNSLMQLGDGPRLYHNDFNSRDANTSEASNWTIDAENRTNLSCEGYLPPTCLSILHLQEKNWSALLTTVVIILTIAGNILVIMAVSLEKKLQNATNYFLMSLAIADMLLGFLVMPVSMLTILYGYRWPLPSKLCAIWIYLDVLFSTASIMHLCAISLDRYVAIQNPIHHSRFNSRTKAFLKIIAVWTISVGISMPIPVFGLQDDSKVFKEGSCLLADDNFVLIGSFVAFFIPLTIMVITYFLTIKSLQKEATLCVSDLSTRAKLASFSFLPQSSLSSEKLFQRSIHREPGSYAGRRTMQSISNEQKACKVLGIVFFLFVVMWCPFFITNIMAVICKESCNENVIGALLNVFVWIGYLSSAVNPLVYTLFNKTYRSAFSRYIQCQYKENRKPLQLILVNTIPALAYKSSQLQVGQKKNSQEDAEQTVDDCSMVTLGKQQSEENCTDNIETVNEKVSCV
Chain of Serotonin 2 (5-HT2) receptor (Rattus norvegicus) (P30994 whole entry, looked up): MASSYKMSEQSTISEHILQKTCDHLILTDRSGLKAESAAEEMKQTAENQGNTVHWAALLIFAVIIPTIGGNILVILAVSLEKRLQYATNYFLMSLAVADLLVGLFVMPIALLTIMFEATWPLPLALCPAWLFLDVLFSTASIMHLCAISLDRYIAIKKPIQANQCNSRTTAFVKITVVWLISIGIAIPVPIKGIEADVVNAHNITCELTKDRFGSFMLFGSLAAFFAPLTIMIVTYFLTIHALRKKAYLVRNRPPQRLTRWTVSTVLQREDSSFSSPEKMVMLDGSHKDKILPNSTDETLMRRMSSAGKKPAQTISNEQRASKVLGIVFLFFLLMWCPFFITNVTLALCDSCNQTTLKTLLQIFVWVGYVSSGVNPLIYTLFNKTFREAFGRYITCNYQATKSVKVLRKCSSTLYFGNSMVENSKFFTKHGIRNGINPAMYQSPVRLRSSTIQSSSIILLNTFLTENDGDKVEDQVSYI

[17] = molecular target: RAC-gamma serine/threonine-protein kinase (Homo sapiens) (UniProt Q9Y243); conditions: Compound concentration 1.0 uM
[18] = molecular target: Serine/threonine-protein kinase Nek6 (Homo sapiens) (UniProt Q9HC98); conditions: Compound concentration 1.0 uM
[19] = molecular target: Dual specificity mitogen-activated protein kinase kinase 6 (Homo sapiens) (UniProt P52564); test: MAP2K6 Invitrogen Lab (UK) kinase screen (BI); conditions: Compound concentration 1.0 uM
[20] = molecular target: Ribosomal protein S6 kinase alpha-3 (Homo sapiens) (UniProt P51812)
Chain of Ribosomal protein S6 kinase alpha-3 (Homo sapiens) (P51812 whole entry): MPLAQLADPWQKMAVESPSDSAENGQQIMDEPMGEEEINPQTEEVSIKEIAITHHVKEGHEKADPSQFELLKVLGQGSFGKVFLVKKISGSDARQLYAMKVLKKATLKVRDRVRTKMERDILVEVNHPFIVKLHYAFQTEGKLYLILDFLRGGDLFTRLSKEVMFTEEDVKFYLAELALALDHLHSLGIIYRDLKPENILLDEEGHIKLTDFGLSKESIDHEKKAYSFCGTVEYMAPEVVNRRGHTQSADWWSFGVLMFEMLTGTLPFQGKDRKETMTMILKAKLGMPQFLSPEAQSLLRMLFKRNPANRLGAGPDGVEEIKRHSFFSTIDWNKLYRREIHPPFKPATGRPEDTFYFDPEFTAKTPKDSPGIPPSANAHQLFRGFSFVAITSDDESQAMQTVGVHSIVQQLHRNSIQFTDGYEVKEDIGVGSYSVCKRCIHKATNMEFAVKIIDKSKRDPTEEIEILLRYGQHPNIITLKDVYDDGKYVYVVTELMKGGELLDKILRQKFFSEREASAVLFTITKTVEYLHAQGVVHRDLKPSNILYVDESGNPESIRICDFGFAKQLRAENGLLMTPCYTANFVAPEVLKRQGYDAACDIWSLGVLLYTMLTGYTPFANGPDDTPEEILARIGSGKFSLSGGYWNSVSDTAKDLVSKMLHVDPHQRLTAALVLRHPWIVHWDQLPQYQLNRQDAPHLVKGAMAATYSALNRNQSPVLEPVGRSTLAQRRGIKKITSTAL

[21] = molecular target: Mitogen-activated protein kinase 10 (Homo sapiens) (UniProt P53779); conditions: Compound concentration 1.0 uM
[22] = molecular target: Angiopoietin-1 receptor (Homo sapiens) (UniProt Q02763)
[23] = molecular target: Nitric oxide synthase 3 (Bos taurus) (UniProt P29473); conditions: Compound concentration 10.0 uM
[24] = molecular target: Cytoplasmic tyrosine-protein kinase BMX (Homo sapiens) (UniProt P51813); test: BMX Invitrogen Lab (UK) kinase screen (BI); conditions: Compound concentration 1.0 uM
[25] = molecular target: AMPK alpha2/beta2/gamma3 (Homo sapiens) (UniProt P54646+O43741+Q9UGI9); conditions: Compound concentration 1.0 uM
[26] = molecular target: 5'-AMP-activated protein kinase catalytic subunit alpha-2/beta-1/gamma-2 (Homo sapiens) (UniProt P54646+Q9UGJ0+Q9Y478); test: AMPK (A2/B1/G2) Invitrogen Lab (UK) kinase screen (BI); type: protein-complex assay; conditions: Compound concentration 1.0 uM
[27] = molecular target: AMPK alpha2/beta2/gamma1 (Homo sapiens) (UniProt P54646+O43741+P54619); test: AMPK (A2/B2/G1) Invitrogen Lab (UK) kinase screen (BI); type: protein-complex assay; conditions: Compound concentration 1.0 uM
[28] = molecular target: Serine/threonine-protein kinase 4 (Homo sapiens) (UniProt Q13043); test: STK4 Invitrogen Lab (UK) kinase screen (BI); conditions: Compound concentration 1.0 uM
[29] = molecular target: GABA B receptor (Rattus norvegicus) (UniProt Q9Z0U4+O88871); test: GABAB/RA Eurofins SafetyScreen44 (BI); type: protein-complex assay; conditions: Compound concentration 10.0 uM
[30] = molecular target: Serine/threonine-protein kinase NIM1 (Homo sapiens) (UniProt Q8IY84); conditions: Compound concentration 1.0 uM
[31] = molecular target: Beta-adrenergic receptor kinase 1 (Homo sapiens) (UniProt P25098); conditions: Compound concentration 1.0 uM
[32] = molecular target: Mitogen-activated protein kinase kinase kinase 8 (Homo sapiens) (UniProt P41279); conditions: Compound concentration 1.0 uM
[33] = molecular target: Protein-tyrosine kinase 2-beta (Homo sapiens) (UniProt Q14289)
[34] = molecular target: Ephrin type-B receptor 2 (Homo sapiens) (UniProt P29323); conditions: Compound concentration 1.0 uM
[35] = molecular target: Sodium-dependent noradrenaline transporter (Homo sapiens) (UniProt P23975); conditions: Compound concentration 10.0 uM
[36] = molecular target: Muscarinic acetylcholine receptor M4 (Homo sapiens) (UniProt P08173); conditions: Compound concentration 10.0 uM
[37] = molecular target: Inhibitor of nuclear factor kappa-B kinase subunit alpha (Homo sapiens) (UniProt O15111); test: CHUK_IKKA Invitrogen Lab (UK) kinase screen (BI)
Chain of Inhibitor of nuclear factor kappa-B kinase subunit alpha (Homo sapiens) (O15111 whole entry): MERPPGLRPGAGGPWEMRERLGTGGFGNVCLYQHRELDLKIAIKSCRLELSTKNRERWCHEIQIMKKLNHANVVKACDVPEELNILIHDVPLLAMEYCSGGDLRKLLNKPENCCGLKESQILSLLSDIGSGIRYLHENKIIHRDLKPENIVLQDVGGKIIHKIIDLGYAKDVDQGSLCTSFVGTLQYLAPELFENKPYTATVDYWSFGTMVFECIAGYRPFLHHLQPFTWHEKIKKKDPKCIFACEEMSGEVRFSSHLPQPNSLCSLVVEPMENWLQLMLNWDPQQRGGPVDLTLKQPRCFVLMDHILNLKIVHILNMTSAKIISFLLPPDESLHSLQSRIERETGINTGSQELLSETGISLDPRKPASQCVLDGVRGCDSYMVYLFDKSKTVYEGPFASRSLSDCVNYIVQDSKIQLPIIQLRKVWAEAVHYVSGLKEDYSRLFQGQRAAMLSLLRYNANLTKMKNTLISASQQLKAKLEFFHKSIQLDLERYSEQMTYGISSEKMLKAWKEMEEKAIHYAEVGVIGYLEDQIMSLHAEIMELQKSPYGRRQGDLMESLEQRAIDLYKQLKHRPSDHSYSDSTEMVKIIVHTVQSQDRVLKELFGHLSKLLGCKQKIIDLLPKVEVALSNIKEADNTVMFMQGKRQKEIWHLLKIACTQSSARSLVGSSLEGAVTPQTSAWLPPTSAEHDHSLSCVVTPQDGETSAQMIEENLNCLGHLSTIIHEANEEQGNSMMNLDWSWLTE

[38] = molecular target: Serotonin 1 (5-HT1) receptor (Rattus norvegicus) (UniProt P28564+P30940+P19327+P28565); test: 5HT1/R Eurofins SafetyScreen44 (BI); type: protein assay
[39] = molecular target: CDK18/Cyclin Y (Homo sapiens) (UniProt Q07002+Q8ND76); conditions: Compound concentration 1.0 uM
[40] = molecular target: Vasopressin V1a receptor (Homo sapiens) (UniProt P37288)
Chain of Vasopressin V1a receptor (Homo sapiens) (P37288 whole entry, looked up): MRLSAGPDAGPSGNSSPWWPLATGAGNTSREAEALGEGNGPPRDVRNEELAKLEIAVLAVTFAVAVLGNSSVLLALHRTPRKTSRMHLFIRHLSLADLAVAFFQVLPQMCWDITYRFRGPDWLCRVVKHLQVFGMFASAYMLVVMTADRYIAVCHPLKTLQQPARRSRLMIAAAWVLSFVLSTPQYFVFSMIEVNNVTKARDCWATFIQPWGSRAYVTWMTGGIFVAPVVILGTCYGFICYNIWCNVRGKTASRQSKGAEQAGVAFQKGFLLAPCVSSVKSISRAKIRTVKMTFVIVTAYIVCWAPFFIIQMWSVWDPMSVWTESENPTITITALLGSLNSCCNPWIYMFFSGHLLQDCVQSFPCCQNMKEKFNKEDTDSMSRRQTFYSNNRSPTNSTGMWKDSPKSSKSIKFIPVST

[41] = molecular target: SRSF protein kinase 1 (Homo sapiens) (UniProt Q96SB4); test: SRPK1 DUNDEE kinase screen (BI); conditions: Compound concentration 10.0 uM
[42] = Compound concentration 100.0 uM

Chain of Serine/threonine-protein kinase Nek6 (Homo sapiens) (Q9HC98 whole entry): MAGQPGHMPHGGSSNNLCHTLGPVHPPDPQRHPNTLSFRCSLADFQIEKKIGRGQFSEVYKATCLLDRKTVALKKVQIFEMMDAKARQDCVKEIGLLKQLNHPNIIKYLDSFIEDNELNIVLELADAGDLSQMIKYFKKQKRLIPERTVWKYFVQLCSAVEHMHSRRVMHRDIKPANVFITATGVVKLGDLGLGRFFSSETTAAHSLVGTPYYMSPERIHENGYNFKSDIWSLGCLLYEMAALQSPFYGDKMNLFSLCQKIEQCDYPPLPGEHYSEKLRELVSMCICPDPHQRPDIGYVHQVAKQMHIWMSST

CCC(F)(F)c1cc(N2CCC(S(C)(=O)=O)CC2)nc2sc(C(N)=O)c(N)c12 [BI-605906]
inhibition [1]: 8% | residual activity [2]: 83.3% | residual activity [3]: 89% | residual activity [4]: 99% | residual activity [5]: 95% | inhibition [6]: 13.7% | residual activity ([7]; Compound concentration 1.0 uM): 93% | residual activity ([7]; Compound concentration 10.0 uM): 87% | residual activity [8]: 85.3% | residual activity [9]: 108% | residual activity (Homo sapiens): 75.6% | inhibition [10]: 14.4% | inhibition [11]: 36.7% | residual activity [12]: 87% | residual activity [13]: 87% | residual activity ([14]; Compound concentration 1.0 uM): 13.5% | residual activity ([14]; Compound concentration 10.0 uM): -1.5% | residual activity [15]: 93% | residual activity ([16]; Compound concentration 10.0 uM): 97% | residual activity [16, 42]: 95% | residual activity [17]: 91% | residual activity [18]: 95% | residual activity [19]: 75% | residual activity ([20]; Compound concentration 1.0 uM): 94% | residual activity ([20]; Compound concentration 10.0 uM): 95% | residual activity [21]: 101% | residual activity ([22]; Compound concentration 1.0 uM): 93% | residual activity ([22]; Compound concentration 10.0 uM): 82% | residual activity [23]: 100% | residual activity [24]: 88% | residual activity [25]: 99% | residual activity [26]: 88% | residual activity [27]: 88% | residual activity [28]: 102% | residual activity [29]: 113% | residual activity [30]: 93% | residual activity [31]: 95% | residual activity [32]: 90% | residual activity ([33]; Compound concentration 1.0 uM): 91% | residual activity ([33]; Compound concentration 10.0 uM): 70% | residual activity [34]: 89% | inhibition [35]: 8.84% | inhibition [36]: 13.3% | residual activity ([37]; Compound concentration 1.0 uM): 67% | residual activity ([37]; Compound concentration 10.0 uM): 27% | residual activity ([38]; Compound concentration 10.0 uM): 119% | residual activity [38, 42]: 107% | residual activity [39]: 96% | residual activity ([40]; Compound concentration 10.0 uM): 99% | residual activity [40, 42]: 89% | residual activity [41]: 73.3%
